One experiment concerns the target Hsc70 (Mus musculus, UniProt P63017). As to the kind of experiment: DRaCALA with [α-32P]ATP. It counts as binding.
For another experiment, the target named is Hsc70 C17W (Mus musculus, UniProt P63017, C17W). Briefly: DRaCALA with [α-32P]ATP. It counts as binding.

This passage reports Kd results from PMC5839340 (Biochemistry, 2018).

As usually defined, the Kd is the equilibrium constant for the complex coming apart. Low values mean higher affinity, high ones lower affinity.

Sequence of Hsc70 C17W (P63017 5-554 C17W): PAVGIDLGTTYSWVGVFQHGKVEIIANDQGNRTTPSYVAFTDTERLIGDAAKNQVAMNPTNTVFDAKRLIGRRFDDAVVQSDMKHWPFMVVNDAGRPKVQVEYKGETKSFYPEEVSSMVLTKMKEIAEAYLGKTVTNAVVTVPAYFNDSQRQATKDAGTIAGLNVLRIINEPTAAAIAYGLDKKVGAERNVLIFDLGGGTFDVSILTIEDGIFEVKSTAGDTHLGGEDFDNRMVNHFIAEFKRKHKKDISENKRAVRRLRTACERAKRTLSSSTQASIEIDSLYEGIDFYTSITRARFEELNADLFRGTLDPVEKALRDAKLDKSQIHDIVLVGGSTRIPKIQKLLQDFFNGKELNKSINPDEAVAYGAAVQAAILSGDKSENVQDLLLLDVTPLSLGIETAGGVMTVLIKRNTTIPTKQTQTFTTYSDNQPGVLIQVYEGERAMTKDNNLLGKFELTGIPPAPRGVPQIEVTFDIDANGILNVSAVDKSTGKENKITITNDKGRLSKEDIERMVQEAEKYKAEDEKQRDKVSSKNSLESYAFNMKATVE
Sequence of Hsc70 (P63017 5-554): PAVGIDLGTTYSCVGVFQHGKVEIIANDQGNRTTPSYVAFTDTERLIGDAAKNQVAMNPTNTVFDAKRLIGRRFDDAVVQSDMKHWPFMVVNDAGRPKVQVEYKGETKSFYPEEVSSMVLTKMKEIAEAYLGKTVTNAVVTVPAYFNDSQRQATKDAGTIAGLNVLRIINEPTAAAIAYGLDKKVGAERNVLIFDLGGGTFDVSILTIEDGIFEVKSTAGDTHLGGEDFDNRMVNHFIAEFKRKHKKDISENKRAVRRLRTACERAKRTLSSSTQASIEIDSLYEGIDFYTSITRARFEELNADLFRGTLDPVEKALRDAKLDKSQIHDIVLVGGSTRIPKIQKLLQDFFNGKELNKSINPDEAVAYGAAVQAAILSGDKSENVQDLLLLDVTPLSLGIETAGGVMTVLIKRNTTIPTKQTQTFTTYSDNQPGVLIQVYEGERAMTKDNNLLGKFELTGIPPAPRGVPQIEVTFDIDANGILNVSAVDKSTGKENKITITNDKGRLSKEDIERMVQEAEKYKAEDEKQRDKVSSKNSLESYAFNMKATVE

As to `Nc1ncnc2c1ncn2[C@@H]1O[C@H](COP(=O)(O)OP(=O)(O)OP(=O)(O)O)[C@@H](O)[C@H]1O` [ATP], the Kd is 0.21 ± 0.04 µM on Hsc70 and 0.16 ± 0.06 µM at Hsc70 C17W.
